In patent US20240093034A1, “FLUORESCENT DYES” (EXOPHARM LIMITED, priority 2020, published 2024):

Legend:
platelet-derived EVs = experiment: Labelling of extracellular vesicles with dyes (Superose 6 HPLC, UV and FLD detection); conditions: EV + 2 μM dye
Method: Labelling of extracellular vesicles (EVs) with dyes 1-10 was performed according to the following procedure. 20 μL of platelet-derived EVs were incubated in HPLC vials with or without each dye at a final concentration of 2 μM dye, the dye stock solution being made up in water. For negative controls, an equivalent volume of the diluent solution was added to the EV solution. The sample was mixed gently. Each sample was subsequently incubated for 1 hr at 37° C. Samples were transferred and stored in the autosampler set at 4° C. A batch table was setup that injected unlabelled EVs prior to labelled EVs. A blank injection was run after each labelled EV experiment to ensure there was no carryover. 15 μL of each sample was injected onto a Superose 6 Increase column (3.2/300) from Cytiva. The flow rate was set at 0.15 mL min* The Shimadzu BioHPLC was run in isocratic mode with Buffer A: 1× PBS (phosphate-buffered saline), pH 7.4, 100 nm filtered. The column oven temperature was set at 30° C. Total run duration was 30 min. Data was collected using two detectors. The PDA (UV detector) was set to scan from 190-800 nm and a channel of the FLD (fluorescence detector) was set at 562 nm/583 nm (Ex/Em). Titration experiments were conducted to confirm that excess dye was removed. The areas of the void peaks from the 214 nm absorption and the 583 nm emission were calculated by the LabSolutions software using the manual integration function. To normalise the fluorescent signal, the total fluorescent area was divided by the UV 214 nm area. This ratio can be used to rank each dye, with higher ratios indicative of greater incorporation.

[1] = test system: normal human dermal fibroblasts (NHDF); experiment: Labelling of human cells with dyes (plate fluorescence); assay type: cell-based; conditions: 2 μM dye, 1 hr 37° C., washed with HBSS; higher = more incorporation
Method: Labelling of human cells with dyes 1-10 was performed according to the following procedure. Each well of a Costar 96 well flat bottom plate was seeded with 5,000 normal human dermal fibroblasts (NHDF; not older than P9) and allowed to attach overnight in full media: fibroblast growth media (Lonza)+2% v/v fetal calf serum. Each dye was diluted 1:50 from a stock of 1 mM with 10 mM L-histidine, 150 mM NaCl, pH 6.0, to a final concentration of 20 μM. The dye was subsequently added to full media at a further 1:10 dilution to a final concentration of 2 μM. The media on the cells was subsequently replaced with the freshly prepared full media containing the dye. For negative controls, an equivalent volume of the diluent solution was added to the cell solution. Cells were incubated for 1 hr at 37° C. and then washed with 1 xHBSS (Hank's balanced salt solution) to remove free dye. Plate was imaged using the CLARIOStar spectrophotometer (5x5 matrix mode, average of 25 data points, 3 wells for each dye). A higher fluorescence indicates a higher amount of incorporation into the cells.

NHDF = experiment: Imaging human cells labelled with dye (microscopy); assay type: cell-based; conditions: 0.2 μM dye
Method: (§1) The cells were imaged to assess incorporation of the dyes according to the following procedure. Cell+dye 2 samples were prepared following the procedure in Example 4 with the following modifications: the cells were seeded with NHDF (not older than P9), human umbilical cord-derived mesenchymal stem cells (UC-MSCs) or bone marrow-derived MSCs (BM-MSCs); and the dye 2 was used in a final concentration of 0.2 μM. Before imaging, each well was washed with 1× HBSS (−) once. 100-200 μL of 1× HBSS (−) was added to each well prior to imaging to make sure the cells are not dried out. The cells were imaged on a Thermo Fisher Evos M5000 microscope equipped with the Texas Red filter. Routinely utilized conditions are (magnification, light, exposure, gain): 10× Texas Red, 22, 146, 105; 20× Texas Red, 12, 133, 64; 40× Texas Red, 36, 79, 40. Settings were held constant for all images taken on the same plate.

[2] = test system: bone marrow-derived MSCs (BM-MSCs); experiment: Imaging human cells labelled with dye (microscopy); assay type: cell-based; conditions: 0.2 μM dye
Method: as §1

[3] = test system: human umbilical cord-derived mesenchymal stem cells (UC-MSCs); experiment: Imaging human cells labelled with dye (microscopy); assay type: cell-based; conditions: 0.2 μM dye
Method: as §1

CCCCCCCCCCCCCCCCCCN(C)C(=O)c1ccccc1-c1c2ccc(=[N+](CC)CC)cc-2oc2cc(N(CC)CC)ccc12.[Cl-] [Dye 2, Rhodamine B N-methyloctadecylamide]
FLD area (EV + dye) (platelet-derived EVs; 1 hr 37° C., void peak area, 562 nm/583 nm (Ex/Em)): 2493643 | Area FLD/Area UV (EV + dye) (platelet-derived EVs; higher ratio = greater incorporation): 4.50 | FLD [1]: 123449 | labelling of cells (microscopy, FIG. 3(a)) (NHDF): capable of labelling | labelling of cells (microscopy, FIG. 3(c)) [2]: capable of labelling | labelling of cells (microscopy, FIG. 3(b)) [3]: capable of labelling
